From US10543247B2, “Aloe preparation for skin enhancement” (Woodcliff Skincare Solutions, Inc., priority 2007, dated 2020)

Assays:
scald hyperalgesia = conditions: compared with phenylbutazone; cited from earlier work
human TLR2 = target: T1, human TLR2 (Homo sapiens, UniProt O60603); test: TLR2 expression vector experiment: HEK 293 cells with NF-kappa B reporter and pDUO-hCD14/TLR2; assay type: cell-based; conditions: HEK 293 cells expressing TLR2 and CD14; 6 hours; FIG. 10B
T1 construct: host or cells: HEK 293 cells, transient transfection by electroporation
T1 sequence (O60603 21-784): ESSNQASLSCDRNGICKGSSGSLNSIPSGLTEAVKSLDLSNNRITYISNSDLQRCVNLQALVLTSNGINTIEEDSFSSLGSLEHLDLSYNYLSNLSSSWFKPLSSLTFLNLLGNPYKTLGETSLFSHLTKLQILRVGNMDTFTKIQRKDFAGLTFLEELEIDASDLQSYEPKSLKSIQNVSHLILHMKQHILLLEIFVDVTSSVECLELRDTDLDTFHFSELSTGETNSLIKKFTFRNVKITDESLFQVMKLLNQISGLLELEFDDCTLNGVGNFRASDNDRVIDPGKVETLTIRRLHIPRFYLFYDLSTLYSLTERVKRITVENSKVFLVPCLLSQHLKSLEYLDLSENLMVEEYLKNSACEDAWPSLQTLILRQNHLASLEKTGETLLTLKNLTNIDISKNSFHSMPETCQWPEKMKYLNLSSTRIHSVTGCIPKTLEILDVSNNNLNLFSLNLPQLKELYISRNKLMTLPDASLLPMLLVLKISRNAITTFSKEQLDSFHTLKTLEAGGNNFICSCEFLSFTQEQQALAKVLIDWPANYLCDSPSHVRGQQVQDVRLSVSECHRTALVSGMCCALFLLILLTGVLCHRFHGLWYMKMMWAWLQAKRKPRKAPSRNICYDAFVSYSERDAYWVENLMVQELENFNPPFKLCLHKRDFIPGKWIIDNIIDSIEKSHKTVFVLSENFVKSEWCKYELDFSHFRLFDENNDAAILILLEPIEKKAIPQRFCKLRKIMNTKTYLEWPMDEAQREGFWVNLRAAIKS
Method: HEK 293 cells were cultured in DMEM/F12 medium supplemented with fetal bovine serum (10%) and 1% penicillin-streptomycin at 37° C., under 5% CO2. Actively growing cells were transiently transfected with the appropriate plasmid(s) using electroporation (at 150 V and one 70-ms pulse). Following electroporation, cells were plated at a density of 5×10^4 cells in 200 μl/well of culture medium. After 48 hours, agents to be tested were added to transfected cells. Six hours after addition of samples, cells were harvested and luciferase activity measured. The NF-kappa B plasmid construct (pBIIXLUC) contained two copies of NF-kappa B motif from HIV/IgK. Plasmids co-expressing human CD14 and human TLR2 (pDUO-hCD14/TLR2) were purchased from InvivoGen. Zymosan was purchased from Sigma, Staphylococcus aureus peptidoglycan from Fluka and ultra pure Salmonella minnesota LPS from List Biological Laboratories, Inc.
FIGS. 10A-10B depict that AloeEx (batch 2-5-05) acts through TLR2. HEK 293 cells (cell line with minimal TLR expression) were transiently transfected with a luciferase reporter gene construct containing two binding sites for NF-kappa B, alone (FIG. 10A), or in combination with the pDUO-hCD14/TLR2 expression plasmid (FIG. 10B). […] Luciferase activity was determined 6 hours after addition of agents.

O-acetylated-D-mannan [O-acetylated-D-mannan (T-2-HN)]
inhibitory effect on scald hyperalgesia (scald hyperalgesia): more marked inhibitory effect than phenylbutazone

peptidoglycan
activation of NF-kappa B (human TLR2): also activated NF-kappa B
